The values that follow come from US20120329117A1, “CONTROL OF CONTAMINANT MICROORGANISMS IN FERMENTATION PROCESSES WITH SYNERGISTIC FORMULATIONS CONTAINING STABILIZED CHLORINE DIOXIDE AND PEROXIDE COMPOUND” (E.I. DU PONT DE NEMOURS AND COMPANY, priority 2010, published 2012).

The subject of this assay is L. brevis. Description: Reduction of lactic acid bacteria in inoculated corn mash (plate count on MRS agar). Format: cell-based, Lactobacillus brevis. To be noted: corn mash inoculated with L. brevis. As for the experimental part: In this example, corn mash was obtained from a commercial ethanol plant immediately after the liquefaction step. The mash was cooled to room temperature and then inoculated with L. brevis cultures prepared as was described in Example 1. 50 ml portions of the inoculated corn mash were treated with SCD, HP and a combination of both as follows:
Following treatment, the samples were incubated for 2 hours in a shaking incubator. Surviving bacteria in each sample was enumerated by plating serial dilutions of each on MRS agar plates (available from Difco Laboratories, Inc., Sparks, Md.) and further incubating the plates for 48 hours at 32° C.

Regarding `OO` [HP, hydrogen peroxide], the “Viable cells after 2 hours” value reads like this: (50 ppm HP) 7.48 Log CFU/g; (100 ppm HP) 5.97 Log CFU/g.
